Read-outs that look alike come from different tables or passages of the source.
Assays:
[1] = system: Corn Earworm (CEW) (Helicoverpa zea); assay: Bioassays on Corn Earworm (CEW), 128-well diet tray assay; assay type: in vivo; settings: 168 h, read-out: CEW Rating (% mortality)
How it was run: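 Second-instar larvae (one to five per well) placed on artificial diet treated with 50 μg/cm^2 compound in 90:10 acetone-water, dried; eight wells per compound. Held at 25° C, 14:10 light-dark, five to seven days; percent mortality averaged over wells.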

[2] = system: Beet Armyworm (BAW) (Spodoptera exigua); assay: Bioassays on Beet Armyworm (BAW), 128-well diet tray assay; assay type: in vivo; settings: 168 h, read-out: BAW Rating (% mortality)
How it was run: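 Second-instar larvae (1–5 per well) on artificial diet surface-treated with 50 μg/cm^2 compound applied in 90:10 acetone-water and dried; eight wells per compound. Held 5–7 days at 25° C., 14:10 light-dark. Percent mortality scored per well and averaged over eight wells.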

[3] = 50 μg/cm^2 test compound on artificial diet, second instar larvae, 25° C., five to seven days, average of eight wells

| SMILES | mortality at 50 µg/cm2 [1, 3] | mortality at 50 µg/cm2 [2, 3] | mortality at 50 µg/cm2 [1] | mortality at 50 µg/cm2 [2] |
| --- | --- | --- | --- | --- |
| O=C(CC(F)(F)F)NCc1ccc(/C=C/C(c2cc(Cl)cc(Cl)c2)C(F)(F)F)cc1Cl (stereo not shown) [CC9] | 50 to 100% | 50 to 100% |  |  |
| O=C(CC(F)(F)F)NCc1ccc(/C=C/C(c2cc(Cl)c(Cl)c(Cl)c2)C(F)(F)F)cc1Cl (stereo not shown) [CC10] | 50 to 100% | 50 to 100% |  |  |
| O=C(NCc1ccc(/C=C/C(c2cc(Cl)c(Cl)c(Cl)c2)C(F)(F)F)cc1Cl)C1CC1 (stereo not shown) [CC11] | 50 to 100% | 50 to 100% |  |  |
| CC(C)(C)C(=O)NCc1ccc(/C=C/C(c2cc(Cl)c(Cl)c(Cl)c2)C(F)(F)F)cc1Cl (stereo not shown) [CC12] | 0% | 0% |  |  |
| O=C(NCc1ccc(/C=C/C(c2cc(Cl)c(Cl)c(Cl)c2)C(F)(F)F)cc1)c1ccnc(Cl)c1 (stereo not shown) [CC13] | 50 to 100% | 50 to 100% |  |  |
| O=C(Cc1ccc(Cl)nc1)NCc1ccc(/C=C/C(c2cc(Cl)c(Cl)c(Cl)c2)C(F)(F)F)cc1Cl (stereo not shown) [CC14] | 0% | 50 to 100% |  |  |
| O=C(NCc1ccc(/C=C/C(c2cc(Cl)c(F)c(Cl)c2)C(F)(F)F)cc1Cl)C1CC1 (stereo not shown) [CC15] | 50 to 100% | 50 to 100% |  |  |
| O=C(CC(F)(F)F)NCc1ccc(/C=C/C(c2cc(Cl)c(F)c(Cl)c2)C(F)(F)F)cc1 (stereo not shown) [CC16] | 50 to 100% | 50 to 100% |  |  |
| O=C(NCc1ccc(/C=C/C(c2ccc(Cl)c(Cl)c2)C(F)(F)F)cc1Cl)C1CC1 (stereo not shown) [CC17] | 50 to 100% | 50 to 100% |  |  |
| O=C(CC(F)(F)F)NCc1ccc(/C=C/C(c2ccc(Cl)c(Cl)c2)C(F)(F)F)cc1Cl (stereo not shown) [CC18] | 50 to 100% | 50 to 100% |  |  |
| CSCCC(=O)NCc1ccc(/C=C/C(c2cc(Cl)c(Cl)c(Cl)c2)C(F)(F)F)cc1Cl (stereo not shown) [CC19] | 50 to 100% | 50 to 100% |  |  |
| FC(F)(F)C(/C=C/c1ccc(CNC(=S)C2CC2)c(Cl)c1)c1cc(Cl)c(Cl)c(Cl)c1 (stereo not shown) [CC20] | 50 to 100% | 50 to 100% |  |  |
| O=C(NCc1ccc(/C=C/C(c2cc(Cl)cc(Cl)c2)C(F)(F)F)cc1C(F)(F)F)C1CC1 (stereo not shown) [CC21] | 50 to 100% | 50 to 100% |  |  |
| O=C(NCc1ccc(/C=C/C(c2cc(Cl)c(Cl)c(Cl)c2)C(F)(F)F)cc1C(F)(F)F)C1CC1 (stereo not shown) [CC22] | 50 to 100% | 50 to 100% |  |  |
| O=C(NCc1ccc(/C=C/C(c2cc(Cl)c(Cl)c(Cl)c2)C(F)(F)F)cc1C(F)(F)F)c1cccnc1 (stereo not shown) [CC23] | 50 to 100% | 50 to 100% |  |  |
| O=C(CC(F)(F)F)NCc1ccc(/C=C/C(c2cc(Cl)c(Cl)c(Cl)c2)C(F)(F)F)cc1C(F)(F)F (stereo not shown) [CC24] | 50 to 100% | 50 to 100% |  |  |
| O=C(CC(F)(F)F)NCc1ccc(/C=C/C(c2cc(Cl)c(Cl)c(Cl)c2)C(F)(F)F)cc1Br (stereo not shown) [CC25] | 50 to 100% | 50 to 100% |  |  |
| O=C(NCc1ccc(/C=C/C(c2cc(Cl)c(Cl)c(Cl)c2)C(F)(F)F)cc1Br)C1CC1 (stereo not shown) [CC26] | 0% | 50 to 100% |  |  |
| O=C(CC(F)(F)F)NCc1ccc(/C=C/C(c2cc(Cl)c(Cl)c(Cl)c2)C(F)(F)F)cc1F (stereo not shown) [CC27] | 50 to 100% | 50 to 100% |  |  |
| O=C(NCc1ccc(/C=C/C(c2cc(Cl)c(Cl)c(Cl)c2)C(F)(F)F)cc1F)C1CC1 (stereo not shown) [CC28] | 50 to 100% | 50 to 100% |  |  |
| O=C(C1CC1)N(Cc1ccccn1)Cc1ccc(/C=C/C(c2cc(Cl)c(Cl)c(Cl)c2)C(F)(F)F)cc1C(F)(F)F (stereo not shown) [CC29, (E)-N-(pyridin-2-ylmethyl)-N-(4-(4,4,4-trifluoro-3-(3,4,5-trichlorophenyl)but-1-enyl)-2-(trifluoromethyl)benzyl)cyclopropanecarboxamide] | 50 to 100% | 50 to 100% |  |  |
| CS(=O)(=O)CCC(=O)NCc1ccc(/C=C/C(c2cc(Cl)c(Cl)c(Cl)c2)C(F)(F)F)cc1Cl (stereo not shown) [CC30, (E)-N-(2-chloro-4-(4,4,4-trifluoro-3-(3,4,5-trichlorophenyl)but-1-en-1-yl)benzyl)-3-(methylsulfonyl)propanamide] | 50 to 100% | 50 to 100% |  |  |

| SMILES | mortality at 50 µg/cm2 [1, 3] | mortality at 50 µg/cm2 [2, 3] | mortality at 50 µg/cm2 [1] | mortality at 50 µg/cm2 [2] |
| --- | --- | --- | --- | --- |
| CCNC(=O)NCc1ccc(/C=C/C(c2cc(Cl)cc(Cl)c2)C(F)(F)F)cc1Cl (stereo not shown) [CC31, (E)-1-(2-chloro-4-(3-(3,5-dichlorophenyl)-4,4,4-trifluorobut-1-en-1-yl)benzyl)-3-ethylurea] | 0% | 0 to 50% |  |  |
| CCNC(=O)NCc1ccc(/C=C/C(c2cc(Cl)c(Cl)c(Cl)c2)C(F)(F)F)cc1C(F)(F)F (stereo not shown) [CC32] | 50 to 100% | 50 to 100% |  |  |
| CCNC(=O)NCc1ccc(/C=C/C(c2cc(Cl)c(Cl)c(Cl)c2)C(F)(F)F)cc1Br (stereo not shown) [CC33] | 50 to 100% | 50 to 100% |  |  |
| O=C(NCc1ccc(/C=C/C(c2cc(Cl)c(Cl)c(Cl)c2)C(F)(F)F)cc1Cl)N1CCOCC1 (stereo not shown) [CC34] | 50 to 100% | 50 to 100% |  |  |
| O=C(NCc1ccc(/C=C/C(c2cc(Cl)c(Cl)c(Cl)c2)C(F)(F)F)cc1Cl)Nc1ccccn1 (stereo not shown) [CC35] | 0% | 0% |  |  |
| CN(C)C(=O)NCc1ccc(/C=C/C(c2cc(Cl)c(Cl)c(Cl)c2)C(F)(F)F)cc1Cl (stereo not shown) [CC36, (E)-3-(2-chloro-4-(4,4,4-trifluoro-3-(3,4,5-trichlorophenyl)but-1-en-1-yl)benzyl)-1,1-dimethylurea] | 50 to 100% | 50 to 100% |  |  |
| CCNC(=S)NCc1ccc(/C=C/C(c2cc(Cl)c(Cl)c(Cl)c2)C(F)(F)F)cc1Cl (stereo not shown) [CC37, (E)-1-(2-chloro-4-(4,4,4-trifluoro-3-(3,4,5-trichlorophenyl)but-1-en-1-yl)benzyl)-3-ethylthiourea] | 50 to 100% | 50 to 100% |  |  |
| C=CCNC(=S)NCc1ccc(/C=C/C(c2cc(Cl)c(Cl)c(Cl)c2)C(F)(F)F)cc1Cl (stereo not shown) [CC38] | 50 to 100% | 50 to 100% |  |  |
| CC(C)(C)OC(=O)NCc1ccc(/C=C/C(c2cc(Cl)c(Cl)c(Cl)c2)C(F)(F)F)cc1Cl (stereo not shown) [CC39] | 0% | 0% |  |  |
| O=C(NCc1ccc(/C=C/C(c2cc(Cl)c(Cl)c(Cl)c2)C(F)(F)F)cc1Cl)Oc1ccccc1Cl (stereo not shown) [CC40] |  |  | 50 to 100% | 0% |
| COC(=O)C(=O)NCc1ccc(/C=C/C(c2cc(Cl)c(Cl)c(Cl)c2)C(F)(F)F)cc1Cl (stereo not shown) [CC41, (E)-methyl 2-((2-chloro-4-(4,4,4-trifluoro-3-(3,4,5-trichlorophenyl)but-1-en-1-yl)benzyl)amino)-2-oxoacetate] | 0% | 0% |  |  |
| O=C(NCc1ccc(/C=C/C(c2cc(Cl)c(Cl)c(Cl)c2)C(F)(F)F)cc1Cl)C(=O)NCC(F)(F)F (stereo not shown) [CC42, (E)-N^1-(2-chloro-4-(4,4,4-trifluoro-3-(3,4,5-trichlorophenyl)but-1-en-1-yl)benzyl)-N^2-(2,2,2-trifluoroethyl)oxalamide] | 0% | 0% |  |  |
| FC(F)(F)C(/C=C/c1ccc(CNc2ccccn2)c(Cl)c1)c1cc(Cl)c(Cl)c(Cl)c1 (stereo not shown) [CC43, (E)-N-(2-chloro-4-(4,4,4-trifluoro-3-(3,4,5-trichlorophenyl)but-1-en-1-yl)benzyl)pyridin-2-amine] | 0 to 50% | 50 to 100% |  |  |
| O=C(CC(F)(F)F)NCc1ncc(/C=C/C(c2cc(Cl)c(Cl)c(Cl)c2)C(F)(F)F)cc1Cl (stereo not shown) [CC44, (E)-N-((3-chloro-5-(4,4,4-trifluoro-3-(3,4,5-trichlorophenyl)-but-1-en-1-yl)pyridin-2-yl)methyl)-3,3,3-trifluoropropanamide] | 50 to 100% | 50 to 100% |  |  |
| O=C(NCc1ncc(/C=C/C(c2cc(Cl)c(Cl)c(Cl)c2)C(F)(F)F)cc1Cl)C1CC1 (stereo not shown) [CC45] | 50 to 100% | 50 to 100% |  |  |
| O=C(CC(F)(F)F)NCc1ccc(/C=C/C(c2cc(Cl)c(Cl)c(Cl)c2)C(F)(F)F)c2ccccc12 (stereo not shown) [CC46, (E)-3,3,3-trifluoro-N-((4-(4,4,4-trifluoro-3-(3,4,5-trichlorophenyl)but-1-en-1-yl)naphthalen-1-yl)methyl)propanamide] | 50 to 100% | 0% |  |  |
| O=C(NCc1ccc(/C=C/C(c2cc(Cl)cc(Cl)c2)C(F)(F)F)c2ccccc12)C1CC1 (stereo not shown) [CC47] | 0% | 0% |  |  |
| O=C(NCc1ccc(/C=C/C(c2cc(Cl)c(Cl)c(Cl)c2)C(F)(F)F)c2ccccc12)C1CC1 (stereo not shown) [CC48] | 0% | 0% |  |  |
| CCNC(=O)NCc1ccc(/C=C/C(c2cc(Cl)c(Cl)c(Cl)c2)C(F)(F)F)c2ccccc12 (stereo not shown) [CC49, (E)-1-ethyl-3-((4-(4,4,4-trifluoro-3-(3,4,5-trichlorophenyl)but-1-en-1-yl)naphthalen-1-yl)methyl)urea] | 0% | 0% |  |  |
| O=C(NNc1ccc(/C=C/C(c2cc(Cl)c(Cl)c(Cl)c2)C(F)(F)F)cc1)C1CC1 (stereo not shown) [CC50, (E)-N′-(4-(4,4,4-trifluoro-3-(3,4,5-trichlorophenyl)but-1-en-1-yl)phenyl)cyclopropanecarbohydrazide] | 50 to 100% | 50 to 100% |  |  |
| O=C(CC(F)(F)F)NNc1ccc(/C=C/C(c2cc(Cl)c(Cl)c(Cl)c2)C(F)(F)F)cc1 (stereo not shown) [CC51] | 50 to 100% | 50 to 100% |  |  |
| O=C(NOc1ccc(/C=C/C(c2cc(Cl)c(Cl)c(Cl)c2)C(F)(F)F)cc1)C1CC1 (stereo not shown) [CC52, (E)-N-(4-(4,4,4-trifluoro-3-(3,4,5-trichlorophenyl)but-1-en-1-yl)phenoxy)cyclopropanecarboxamide] | 0% | 50 to 100% |  |  |

Source: US9615576B2, “Pesticidal compositions and processes related thereto” (Dow AgroSciences LLC, priority 2011, dated 2017)
